Square brackets hold non-standard residues; d marks the D form. Ends that are not written are not given here.
Key:
[1] = tested on: Candida albicans (Candid); test: Minimal inhibitory concentration, Candida; assay type: cell-based
Description: (§1) The minimal inhibitory concentrations (MICs) of a variety of protegrins were determined against the following organisms: methicillin resistant Staphylococcus aureus (MRSA), Pseudomonas aeruginosa (Psa), vancomycin resistant Enterococcus fecium (VREF), Candida albicans (Candid) and Escherichia coli (E. Co), and are shown in Table 9.

Escherichia coli (E. Co) = test: Minimal inhibitory concentration, E. coli; assay type: cell-based
Description: as §1

[2] = tested on: methicillin resistant Staphylococcus aureus (MRSA); test: Minimal inhibitory concentration, MRSA; assay type: cell-based
Description: as §1

[3] = tested on: Pseudomonas aeruginosa (Psa); test: Minimal inhibitory concentration, Psa; assay type: cell-based
Description: as §1

E. coli ML-35P = test: Radial diffusion assay in agarose gels, E. coli; assay type: cell-based
Description: Aliquots (66 μl) of each fraction were dried by vacuum centrifugation and resuspended in 6.6 μl of 0.01% acetic acid. […] The units of activity in the radial diffusion assay were measured as described; 10 units correspond to a 1 mm diameter clear zone around the sample well.

[4] = tested on: Trichomonas vaginallis strain C1 (ATCC 30001); strains MR and TV; test: Trichomonas vaginallis exposure assay; details: strains MR and TV; 100 and 50 μg/ml
[5] = tested on: lipid polysaccharide (LPS) of E. coli strain 0.55B5; test: Limulus amebocyte lysate (LAL) test for endotoxin binding; assay type: biochemical; details: LPS 0.05 endotoxin unit/ml
[6] = tested on: Listeria monocytogenes, strain EGD; test: Radial diffusion assay in agarose gels, L. monocytogenes; assay type: cell-based
Description: Aliquots (66 μl) of each fraction were dried by vacuum centrifugation and resuspended in 6.6 μl of 0.01% acetic acid. Five μl samples of this concentrate were tested for antimicrobial activity against E. coliML-3, L. monocytogenes, strain EGD and C. albicans, strain 820, using radiodiffusion and gel overlay techniques as described by Lehrer, R. I. et al. J Immunol Meth (1991) 137:167-173. […] The units of activity in the radial diffusion assay were measured as described; 10 units correspond to a 1 mm diameter clear zone around the sample well. Activity was found in a large number of fractions.
The radial diffusion assay in agarose gels described in Example 1 was also used to test the activity of the purified protegrins. FIGS. 4a, 4b and 4c show the results against three test organisms in units described as above.
The antimicrobial activity of the linearalized forms was also compared with that of the native protegrins. Both linearalized and cyclic forms of the protegrins tested continue to show antimicrobial activity, although the effectiveness of these peptides as antimicrobials depends on the nature of the target organism and on the test conditions. The antimicrobial activity of native PG-1 and its linearalized form (cam-PG-1) and PG-3 and its linearalized form (cam-PG-3) were tested according to the procedure set forth in Example 1 as described by Lehrer, R. I. et al. J Immunol Meth (1991) 137:167-173.
Using standard solid phase techniques, a protegrin having the amino acid sequence of PG-1, but wherein every amino acid is in the D form was prepared. This form of protegrin was tested against E. coli, L. monocytogenes, C. albicans and other microbes in the absence and presence of protease and otherwise as described for the radiodiffusion assay in agarose gels set forth in Example 1.
The kite and bullet PG-1 compounds prepared in Example 12 were tested for antimicrobial activity using the radial diffusion assay described in Example 1 as published by Lehrer, R. I. et al., J Immunol Meth (1991) 137:167-173, except that the underlay agars contained […] sodium phosphate buffer with a final pH of 7.4. As described in Example 1, 0.3 mg/ml tripticase soy broth powder and 1% agarose were used as well in the underlay agar. In some cases 100 mM NaCl or RPMI plus 2.5% normal human serum (NHS) was added to the agar.

C. albicans, strain 820 = assay type: cell-based, Candida albicans
Description: Similarly, using C. albicans as a target organism, underlayers were prepared with 10 mM sodium phosphate with and without 10% normal human serum.

[7] = tested on: N. gonorrhoeae strains FA 19 and F 62; details: 45 minutes at 37° C.
Description: Nonpiliated transparent variants of strains FA 19 and F 62 were propagated on GCB agar plates containing glucose and iron supplements overnight at 37° C. under 3.8% V/V CO2. These strains were chosen for their adaptability to the assay.
The overnight growth is removed from the agar plate and suspended in GCB broth containing supplements and sodium bicarbonate and grown with shaking at 37° C. to mid log phase. The culture is diluted 1:100 in GCB broth to give about 10^6 CFU/ml and serial dilutions were plated onto GCB agar.
Ten μl of each dilution is added to a sterile polystyrene tube containing 90 μl of diluted bacteria and the tubes are shaken at 37° C. for 45 minutes. The contents are serially diluted 1:10 and plated on to GCB agar plates which are incubated in a CO2 incubator. CFU are counted after 24 hours and the log bactericidal activity calculated.

HIVJR-CSF and HIVJR-FL = test: HIV infection of human peripheral blood mononuclear cells, p24 antigen
Description: Briefly, the mononuclear cell fraction is recovered from normal donor leukopacs from the American Red Cross using a Ficoll-hypaque density gradient. The mononuclear cells are resuspended at 1×10^6 cells per ml in RPMI 1640 medium with 20% fetal bovine serum, 1% penn/strep with fungizone and 0.5% PHA and incubated 24 hours at 37° C. in 5% CO2. The cells are centrifuged, washed and then expanded for 24 hours in growth medium.
Non-laboratory adapted, cloned HIVJR-CSF and HIVJR-FL were electroporated into the human peripheral blood mononuclear cells prepared as described above. Titers were determined and in general, multiplicities of infection (MOI) of about 4,000 infectious units per cell are used (which corresponds to 25-40 picograms per ml HIV p24 antigen in the supernatant).
In the assay, the HIV stocks prepared as above were diluted to the correct MOI and the PBM are added to 24 well plates at a concentration of 2×10^6 per ml. One μl total volume is added to each well. The peptide to be tested is added in growth medium to achieve the final desired concentration. Then the appropriate number of MOI are added. To assay viral growth, 200 μl of supernatant is removed on days 3 and 7 and the concentration of p24 antigen is determined using a commercial assay (Coulter Immunology, Hialeah, Fla.). Controls include duplicate wells containing cells alone, cells plus peptide at 5 μg/ml cells with virus but not peptide and cells with virus in the presence of AZT at 10^−5 M-10^−8 M.

[8] = Radial diffusion assay in 25 mM borate buffer (Table 4); assay type: cell-based; details: buffer (25 mM borate buffer, pH 7.4)
Description: Contact lens solutions are typically formulated with borate buffered physiological saline and may or may not contain EDTA in addition. Protegrins in the form of the synthetic PG-3 amide and synthetic PG acid were tested generally in the assay described in Example 1 wherein all underlay gels contain 25 mM borate buffer, pH […] tryptocase soy broth ([…] TSB powder) and […]. Additions included either 100 mM NaCl, 1 mM EDTA or a combination thereof. Other test compounds used as controls were the defensin NP-1 and lysozyme. Dose response curves were determined.

[9] = radial diffusion, underlay agar pH 6.5

R-G-G-G-L-C-Y-C-R-R-R-F-C-V-C-V-G-R-OH (RGGGLCYCRRRFCVCVGR-OH; cysteine pairing not given here) [IB-249]
minimal inhibitory concentration (MIC) Candid [1]: 3.29
minimal inhibitory concentration (MIC) E. Co (Escherichia coli (E. Co)): 0.4

R-G-G-R-V-C-Y-C-R-G-R-F-C-V-C-V (RGGRVCYCRGRFCVCV) [IB-400]
minimal inhibitory concentration (MIC) MRSA [2]: 8
minimal inhibitory concentration (MIC) Psa [3]: 2

R-G-G-G-L-C-Y-C-R-P-R-F-C-V-C-V-G-R-OH (RGGGLCYCRPRFCVCVGR-OH; cysteine pairing not given here) [IB-324]
minimal inhibitory concentration (MIC) Candid [1]: 17.7
minimal inhibitory concentration (MIC) E. Co (Escherichia coli (E. Co)): 3.51

R-G-G-R-L-C-Y-C-R-R-R-F-C-V-C-V-G-R (all †) ([dR]GG[dR][dL][dC][dY][dC][dR][dR][dR][dF][dC][dV][dC][dV]G[dR]-NH2; cysteine pairing not given here) [enantioPG-1]
inhibition of growth of E. coli (FIG. 12a) (E. coli ML-35P; absence of protease): equally effective
antibacterial effect in presence of protease (FIG. 12b) (E. coli ML-35P; trypsin or chymotrypsin, organism of FIG. 12b not stated): neither trypsin nor chymotrypsin inhibits the antibacterial effect
susceptibility of metronidazole-resistant clinical isolates [4]: susceptible

R-G-G-G-L-C-Y-C-F-P-K-F-C-V-C-V-G-R (RGGGLCYCFPKFCVCVGR-NH2; cysteine pairing not given here) [IB-218]
minimal inhibitory concentration (MIC) MRSA [2]: 3.48
minimal inhibitory concentration (MIC) Psa [3]: 1.2
minimal inhibitory concentration (MIC) Candid [1]: 15.96

R-G-G-R-L-C-Y-C-R-R-R-F-C-V-C-V-G-R-OH (RGGRLCYCRRRFCVCVGR-OH; cysteine pairing not given here) [IB-247]
minimal inhibitory concentration (MIC) MRSA [2]: 1.5
minimal inhibitory concentration (MIC) Psa [3]: 0.11
minimal inhibitory concentration (MIC) Candid [1]: 1.2
minimal inhibitory concentration (MIC) E. Co (Escherichia coli (E. Co)): 0.6

HNP-4: native human defensin (VCSCRLVFCRRTELRVGNCLIGGVSFTYCCTRV; ends and bridges not checked; cysteine pairing not given here; UniProt P12838 64-96, looked up) [reference compound]
gel formation in LAL test ([5]; 2.5 μg peptide in 0.2 ml): trace
gel formation in LAL test ([5]; 5 μg peptide in 0.2 ml): trace
gel formation in LAL test ([5]; 10 μg peptide in 0.2 ml): no gel

R-G-G-R-L-C-Y-A-R-R-R-F-A-V-C-V-G-R-OH (RGGRLCYARRRFAVCVGR-OH; cysteine pairing not given here) [IB-288]
minimal inhibitory concentration (MIC) Psa [3]: 0.05
minimal inhibitory concentration (MIC) Candid [1]: 1.6
minimal inhibitory concentration (MIC) E. Co (Escherichia coli (E. Co)): 0.4

R-G-G-R-L-C-Y-C-R-R-R-F-C-I-C-V (RGGRLCYCRRRFCICV) [PG-2]
antibacterial activity against E. coli (FIG. 4a) (E. coli ML-35P; [9]): effective against the three organisms tested but was not as active as the other two peptides
antibacterial activity against Listeria monocytogenes (FIG. 4b) [6, 9]: effective against the three organisms tested but was not as active as the other two peptides
antifungal activity against Candida albicans (FIG. 4c) (C. albicans, strain 820; [9]): effective against the three organisms tested but was not as active as the other two peptides
gel formation in LAL test ([5]; 1.0 μg peptide in 0.2 ml): no gel
gel formation in LAL test ([5]; 2.5 μg peptide in 0.2 ml): no gel
gel formation in LAL test ([5]; 5 μg peptide in 0.2 ml): no gel
gel formation in LAL test ([5]; 10 μg peptide in 0.2 ml): no gel
reduction in CFU per ml [7]: 2.6 fold
anti-HIV activity level relative to PG-1 (HIVJR-CSF and HIVJR-FL): approximately 5 fold less

HNP-3: native human defensin [reference compound]
gel formation in LAL test ([5]; 10 μg peptide in 0.2 ml): no gel

R-G-G-G-L-C-Y-C-R-R-P-F-C-V-C-V-G-R (RGGGLCYCRRPFCVCVGR-NH2; cysteine pairing not given here) [IB-224]
minimal inhibitory concentration (MIC) MRSA [2]: 3.1
minimal inhibitory concentration (MIC) Psa [3]: 0.06
minimal inhibitory concentration (MIC) Candid [1]: 7.69
minimal inhibitory concentration (MIC) E. Co (Escherichia coli (E. Co)): 0.15

R-G-G-G-L-C-Y-T-R-P-R-F-T-V-C-V-G-R (RGGGLCYTRPRFTVCVGR-NH2; cysteine pairing not given here) [IB-226]
minimal inhibitory concentration (MIC) MRSA [2]: 8.7
minimal inhibitory concentration (MIC) Psa [3]: 0.07
minimal inhibitory concentration (MIC) E. Co (Escherichia coli (E. Co)): 1.53

R-G-G-G-L-C-Y-A-R-K-G-F-A-V-C-V-G-R (RGGGLCYARKGFAVCVGR-NH2; cysteine pairing not given here) [IB-227]
minimal inhibitory concentration (MIC) MRSA [2]: >128
minimal inhibitory concentration (MIC) Psa [3]: 0.01
minimal inhibitory concentration (MIC) E. Co (Escherichia coli (E. Co)): 2.65

R-G-G-G-L-C-Y-A-R-G-W-I-A-F-C-V-G-R (RGGGLCYARGWIAFCVGR-NH2; cysteine pairing not given here) [IB-214]
minimal inhibitory concentration (MIC) MRSA [2]: 2.1
minimal inhibitory concentration (MIC) Psa [3]: 0.59
minimal inhibitory concentration (MIC) Candid [1]: 32.6
minimal inhibitory concentration (MIC) E. Co (Escherichia coli (E. Co)): 0.81

lysozyme [reference compound]
ESTIMATED MINIMAL FUNGICIDAL CONCENTRATIONS [8]: 75.0 µg/mL

R-G-G-R-V-C-Y-C-R-G-R-F-C-V-C-V-G-R (RGGRVCYCRGRFCVCVGR) [IB-398]
minimal inhibitory concentration (MIC) MRSA [2]: 8
minimal inhibitory concentration (MIC) Psa [3]: 1

R-G-G-R-V-C-Y-C-R-G-R-F-C-V-C-V-OH (RGGRVCYCRGRFCVCV-OH; cysteine pairing not given here) [IB-401]
minimal inhibitory concentration (MIC) MRSA [2]: 64
minimal inhibitory concentration (MIC) Psa [3]: 1

HNP-2: native human defensin used as control (CYCRIPACIAGERRYGTCIYQGRLWAFCC; ends and bridges not checked; cysteine pairing not given here; UniProt P59665 66-94, looked up) [reference compound]
activity against Candida albicans in fetal calf serum (FIG. 5c) (C. albicans, strain 820; 90% fetal calf serum): lose their ability to inactivate C. albicans
gel formation in LAL test ([5]; 2.5 μg peptide in 0.2 ml): trace
gel formation in LAL test ([5]; 5 μg peptide in 0.2 ml): trace
gel formation in LAL test ([5]; 10 μg peptide in 0.2 ml): trace

R-G-G-G-L-C-Y-C-R-R-G-F-C-V-C-F-G-R (RGGGLCYCRRGFCVCFGR-NH2; cysteine pairing not given here) [IB-223]
minimal inhibitory concentration (MIC) MRSA [2]: 1.93
minimal inhibitory concentration (MIC) Psa [3]: 0.14
minimal inhibitory concentration (MIC) Candid [1]: 1.62

R-G-G-R-L-C-Y-C-R-P-R-F-C-V-C-V-G-R (RGGRLCYCRPRFCVCVGR-NH2; cysteine pairing not given here) [PG-5]
antimicrobial activity against E. coli compared to synthetic PG-1 (FIGS. 11a-11c) (E. coli ML-35P): comparable antimicrobial activity to PG-1
antimicrobial activity against L. monocytogenes compared to synthetic PG-1 (FIGS. 11a-11c) [6]: comparable antimicrobial activity to PG-1
antimicrobial activity against C. albicans compared to synthetic PG-1 (FIGS. 11a-11c) (C. albicans, strain 820): comparable antimicrobial activity to PG-1

R-G-G-G-L-C-Y-A-R-G-F-I-A-V-C-F-G-R (RGGGLCYARGFIAVCFGR-NH2; not fully specified; printed as R-G-G-G-L-C-Y-A-R-G-F-I-A-V-C-F-G-R; cysteine pairing not given here) [IB-216]
minimal inhibitory concentration (MIC) MRSA [2]: 19
minimal inhibitory concentration (MIC) Psa [3]: 14
minimal inhibitory concentration (MIC) Candid [1]: 65.8
minimal inhibitory concentration (MIC) E. Co (Escherichia coli (E. Co)): 3.27

R-G-G-R-L-C-Y-A-R-R-R-F-A-V-C-V-G-R (RGGRLCYARRRFAVCVGR) [IB-289]
minimal inhibitory concentration (MIC) Psa [3]: 0.05
minimal inhibitory concentration (MIC) Candid [1]: 1.6
minimal inhibitory concentration (MIC) E. Co (Escherichia coli (E. Co)): 0.4

Source: patent US6653442B1, “Protegrins” (priority 1993, dated 2003)
